Data: patent US20230138400A1, “METHODS AND PHARMACEUTICAL COMPOSITIONS FOR REPROGRAMING IMMUNE ENVIRONMENT IN A SUBJECT IN NEED THEREOF” (INSERM (INSTITUT NATIONAL DE LA SANTE ET DE LA RECHERCHE …, priority 2016, published 2023)

Columns and labels:
E0771 tumors = test: Immune cells infiltrated into E0771 tumors (wild type, sh control, sh LXR) after DDA, flow cytometry; assay type: in vivo, mouse
From the text: FIGS. 14A-D. […] mice were grafted subcutaneously with 300 000 E0771 tumor cells knocked down for the LXR (E0771 sh LXR) or with control cells (E0771 Sh control). […] 15 days post DDA treatment, the tumor cells were collected to assess by flow cytometry the CD4 Th1 cells (CD4+ Tbet+), CD4 T regulatory (Treg: CD4+ Foxp3+), CD8 T cells cytotoxic (CTL: CD8+ granzyme +)) or not (non CTL: CD8+ Granzyme −), macrophage M1 (F4/80+ CD206− CD86+) and M2 (F4/80+ CD206+ CD86−), dendritic cells CD11c+, CD11c+CD8α+ and myeloid derived suppressive cells (MDSC: CD11b+CD11clow, LY6C+ly6Gint) infiltrated into the tumors. To observe the cytotoxic CD8 T cells, the tumor suspension was prealably stimulated 2 h in vitro with a cocktail of PMA (50 ng/ml), ionomycine (500 ng/ml) and golgistop (concentration from manufacture BD Pharmagen), then the cells were stained with specific antibodies. The bars graphs represent the ratio between (A) Th1 and Treg, (B) CTL and non CTL, (C) M1 and M2 and (D) Alls DCs (CD11c+ and CD11c+ CD8α+) and MDSC infiltrated inside the tumors: E0771 sh control or E0771 Sh LXR (knocked down for LXRβ) from mice treated or not with DDA at 0.37 ug/kg. In cells expressing the LXRβ (E0771 shcontrol cells), DDA increases the infiltration of activated immune cells (Th1, CTL, macrophages M1 and DC) and decreases the infiltration of immunosuppressives cells (Treg, non CTL, M2 and MDSC).
FIGS. 15A-D. DDA treatment decreases the percentage of T regulatory CD4 T cells and increases the activated CD4+ and CD8+ T cells inside tumors. […] When tumors were palpable (50 mm3), the animals were treated with the vehicle (empty symbol) or s.c. 0.37 μg/kg of DDA (full symbol) every 2 days, once a day. […] post treatment, the animals were sacrified to collect the tumors. The tumors were dissociated by using gentlemac technology (Miltenyi) and then the suspension of tumor cells were stimulated with 50 ng/ml of PMA (Sigma), 500 ng/ml Ionomycin (Sigma) and 1/1000 of golgi stop (ebiosicence) during 3 h at 37° C. Tumor infiltrated Lymphocytes (TIL) isolated from E0711 tumors were stained with antibodies against CD45, CD8, CD4, PD-1, Foxp3, T-bet, IFN-g, Granzym B, PD-1 as well as live/dead stain. By gating on CD45+CD4+ (A-B) or CD45+CD8+ T cells populations (C-D), the tumor-infiltrating (A) T regulatory cells (Treg; Foxp3+), (B) effector CD4+ cells (Th1; T-bet+) and (C) cytotoxic CD8 T cells (CTL; IFN-γ+Granzym B+) were analyzed by flow cytometry. The vehicle condition is normalized at 1 and the graphs are representative of three independent experiments. (D). The graph represents the percentage of PD-1 negative CD8+ cells inside tumors of mice treated with vehicle or DDA and is representative of three independent experiments.
FIGS. 17A-D. The silencing of LXRβ in tumor affects the effects of DDA on T regulatory and cytotoxic CD8+ T cells population infiltrated inside tumor. Animals grafted with E0711 tumors expressing the LXRβ (square symbol) or knockdown for the LXRβ expression (circle symbol) treated in FIG. 2 were sacrified to collect tumors, 15 days post treatment with the vehicle (empty symbol) or 0.37 μg/kg of DDA (full symbol). The tumor were dissociated by using gentlemac technology (Miltenyi), and the suspension of tumor cells obtained were stimulated with 50 ng/ml of PMA (Sigma), 500 ng/ml Ionomycin (Sigma) and 1/1000 of golgi stop (ebiosicence) during 3 h at 370 to analyze by flow cytometry the phenotype of tumor-infiltrated lymphocytes. By gating on CD45+CD4+ (A-B) or CD45+CD8+ T cells populations (C-D) as well as live/dead stain, the tumor-infiltrating (A) T regulatory cells (Treg; Foxp3+), (B) effector CD4+ cells (Th1; T-bet+) and (C) cytotoxic CD8 T cells (CTL; IFN-γ+Granzym B+) were determined.

[1] = tested on: tumor cells implanted in mice; conditions: de Medina et al., Nat Commun. 2013; cited from earlier work
SKMEL-28 cells = test: Exosome production of SKMEL-28 cells (shCTRL or shLXRbeta) treated with DDA; assay type: cell-based, human; conditions: for production of exosomes: 2.5 μM DDA for 24 h
Protocol: Obtention of LXRβ knock-down cells. SKMEL28 cells ([…]) or E0771 (3×10^6) were transfected with the Neon Transfection System (Invitrogen) with 1 μg or 3 μg of small hairpin RNA targeting human LXRβ or mouse LXRβ (two different shRNA were used) or with 1 μg control ShRNA. Transfected cells were selected in multiwell plates (10 000 cells/well) with puromycin ranging from 1-10 μg/ml. Two clones transfected with two different shRNA against LXRβ with LXRβ expression knocked-down by 70% and 80% (for SKMEL28) and by 90% and 95% (for E0771) and two control clones were selected.
Exosome quantification. 1) Protein content in exosomes was quantified by the spectrophotometric method of Lowry in presence of 0.1% w/v sodium dodecyl […]. 2) Exosomes were also quantified by flow cytometry following labeling with the fluorescent lipid Bodipy-ceramide (Invitrogen-Molecular Probes) for 1 hour at 37° C. Excess of Bodipy-ceramide was removed by filtration and washing through the 1000 kDa Vivaspin filter and exosomes were quantitated by FACS. 3) Numeration of exosomes vesicles was performed either by nano tracking analysis (Nanosight equipment, Malvern, France) or by TRPS (tunable resistive pulse sensing) technology (qNano equipment, Izon, UK).

[2] = E0771 shcontrol, 0.37 μg/kg DDA every 2 days, 15 days (FIG. 14)
[3] = decrease expression of LXRB into the tumors (FIG. 17)
[4] = tumors expressing LXRβ, 0.37 μg/kg DDA, 15 days (FIG. 17)
[5] = wild type E0771, s.c. 0.37 μg/kg DDA every 2 days (FIG. 15)

CC(C)CCCC(C)[C@H]1CCC2C3C[C@@H](NCCc4cnc[nH]4)[C@@]4(O)C[C@@H](O)CC[C@]4(C)C3CC[C@@]21C (stereo partly drawn) [DDA, 5a-hydroxy-6b-[2-(1H-imidazol-4-yl)ethylamino]cholestan-3b-ol]
number of macrophages M1 infiltrated into the tumors (E0771 tumors; 0.37 μg/kg DDA (FIG. 18)): increases | ratio of dendritic cells CD11+ versus MDSC (E0771 tumors; 0.37 μg/kg DDA (FIG. 19)): increases | effect of DDA on immune cell infiltration (E0771 tumors; E0771 shLXR cells (FIG. 14)): significantly decreased | infiltration of activated immune cells (Th1, CTL, macrophages M1 and DC) (E0771 tumors; [2]): increases | infiltration of immunosuppressives cells (Treg, non CTL, M2 and MDSC) (E0771 tumors; [2]): decreases | effect of DDA on T regulatory cells infiltrated into the tumors (E0771 tumors; [3]): abolished | effect of DDA on activated cytotoxic CD8+ T cells infiltrated into the tumors (E0771 tumors; [3]): abolished | influence of decreased LXRB expression on DDA effect on effector Th1CD4+ (E0771 tumors; [3]): had no effect | LXRβ dependence of effect on macrophages M2 (E0771 tumors; shLXRβ vs LXRβ expressing tumors (FIG. 18)): independent of the LXRβ | number of T regulatory cells infiltrated into the tumors (E0771 tumors; [4]): decreases | number of activated cytotoxic CD8+ T cells infiltrated into the tumors (E0771 tumors; [4]): increases | number of effector Th1CD4+ cells infiltrated into the tumors (E0771 tumors; [4]): increases | activated CD4+ T cells inside tumors (E0771 tumors; [5]): increases | activated CD8+ T cells inside tumors (E0771 tumors; [5]): increases | number of T regulatory CD4 T cells inside tumors (E0771 tumors; [5]): decreases | animal survival [1]: improves animal survival | growth of tumor cells implanted in mice [1]: control the growth | infiltration of CD3+ T lymphocytes and CD11c+ dendritic cells [1]: increased infiltration | production of exosomes (SKMEL-28 cells; SKMEL-28-shCTRL cells): about 2 fold | production of exosomes (SKMEL-28 cells; SKMEL-28-shLXRbeta cells): does not stimulate | exosome secretion from human melanoma cells (SKMEL-28 cells; SKMEL-28 cells, data not shown): stimulates exosome secretion
